Measured values reported in EP0108147B1, “Use of a protoberberine alkaloid and composition containing same” (MAROKO, Peter R., priority 1982, dated 1983).

Tests used:
[1] = system: patient with cardiomyopathy; assay: Berberine in one patient with cardiomyopathy in irreversible cardiogenic shock; type: in vivo
Method: In the last two hours before berberine it was not measurable. […] Stroke volume was 20 ml and then 36 and then 36 ml.

LD50, intravenous bolus = settings: rat, in vivo
NaK-ATPase = settings: Cohen et al., Biochem. Pharmacol. 27: 2555-2558, 1978; cited from earlier work
[2] = system: dogs with acute left ventricular failure; assay: MUGR ejection fraction in dogs with acute left ventricular failure after coronary embolization; type: in vivo; settings: for EF: 0.2 mg/Kg/min
Method: Nevertheless, to verify the response of dogs with acute heart failure with this sophisticated technique, this condition was provoked by previous embolization into the left coronary artery (as described below in protocol HV). thereafter, the effect of berberine infusion was analyzed after embolization. […] Berberine was infused in a rate of 0.2 mg/Kg/min for 30 minutes and MUGR was repeated after 2, 15, 22 and 28 minutes of infusion.
Six dogs were studied using this technique (Table XV). […] The thirty minute infusion of berberine (0.2 mg/Kg/min) was administered. During this period four radionuclide ventriculographies were obtained and averaged. After discontinuation of the infusion again four radionuclide ventriculographies were obtained in the next thirty minutes and averaged.

dogs = assay: Protocol RK: systemic arterial pressure and heart rate, pressure not held constant, two doses; type: in vivo
Source text: The protocol was the same as described above except that in these dogs, contrary to the previously reported series, the systolic arterial pressure was not maintained constant. Also, the dogs were instrumented only with an electrocardiogram (with lead aVF being constantly recorded), and polyethylene cannula in aorta introduced through the carotid artery to measure aortic pressures, and another cannula in the jugular vein for drug administration. Average heart rate (measured by continuously monitored electrocardiographic lead aVF) was reduced from 146 ± 4 (mean ± 1 S.E.M.) to […] (p <0.1) after the first 45 minutes. After the second 45 minutes heart beat rate was further reduced to […] (p <0.01 ).

[3] = system: chronically instrumented conscious dogs; assay: Oral administration in chronically instrumented conscious dogs; type: in vivo

COc1ccc2cc3[n+](cc2c1OC)CCc1cc2c(cc1-3)OCO2 [berberine]
cardiac output ([1]; 0.2 and 0.4 mg/kg/min, after 30 minutes, from 1.2): 3.5 L/min
increase of cardiac output ([1]; after 30 minutes): 192%
cardiac output ([1]; after 90 minutes): 2.2 L/min
increase of cardiac output ([1]; after 90 minutes): 82%
Stroke volume ([1]; first value after berberine, from 20 ml): 36 mL
Stroke volume ([1]; second value after berberine): 36 mL
LD50 (LD50, intravenous bolus): ~55 mg/kg
inhibition of NaK-ATPase activity (NaK-ATPase): inactive
EF ([2]; another dog, at 2, 39 after embolization): 60%
EF ([2]; another dog, at 15): 62%
EF ([2]; one dog, 2 minutes of infusion, 27 after embolization): 35%
EF ([2]; one dog, 15 minutes): 37%
EF ([2]; one dog, 22 minutes): 39%
EF ([2]; one dog, 28 minutes): 38%
increase of EF ([2]; six dogs): ~50%
left ventricular ejection fraction (EF) ([2]; six dogs, during 30 minute infusion 0.2 mg/Kg/min, from 27 ± 3): 40 ± 3%
EF after the discontinuation of infusion ([2]; six dogs, next half an hour): continued to be significantly elevated
mean pressure (dogs; after 90 minutes, from 114 ± 7): 96 ± 5 mmHg
pulse pressure (systolic minus diastolic pressure) (dogs; end of the experiment, from an average of 28): 35 mmHg
Mean systemic arterial pressure (dogs; first dose, 5 minutes, from 114 ± 7): 87 ± 5 mmHg
Mean systemic arterial pressure (dogs; first dose, 10 minutes): 93 ± 4 mmHg
Mean systemic arterial pressure (dogs; first dose, 15 minutes): 92 ± 5 mmHg
Mean systemic arterial pressure (dogs; first dose, 30 minutes): 101 ± 7 mmHg
Mean systemic arterial pressure (dogs; first dose, 45 minutes): 101 ± 7 mmHg
Mean systemic arterial pressure (dogs; second dose, 5 minutes): 94 ± 4 mmHg
Mean systemic arterial pressure (dogs; second dose, 10 minutes): 95 ± 6 mmHg
Mean systemic arterial pressure (dogs; second dose, 15 minutes): 95 ± 5 mmHg
Mean systemic arterial pressure (dogs; second dose, 30 minutes): 97 ± 5 mmHg
Mean systemic arterial pressure (dogs; second dose, 45 minutes): 97 ± 5 mmHg

COc1cc2c(cc1O)C[C@H]1c3cc(O)c(OC)cc3CCN1C2 [coreximine]
oral effects compared with berberine ([3]; dog, in vivo, po): more marked than those of berberine
increase of LV dP/dt ([3]; oral 5 mg/kg twice daily, after the first day): 25%
